Source: the NIST ThermoML archive (doi:10.1021/je0603574)
Several values for one entry are separate records, joined by “and”; a condition that tells them apart may be missing. Equal values may be shown once.

Assays:
[1] = excess molar enthalpy (molar enthalpy of mixing); xn = mol fraction of the nth substance listed; settings: 323.15 K, Liquid, Flow calorimetry
[2] = 323.15 K; Liquid; Closed cell (Static) method

COC [dimethyl ether] + CCCO
[1]
Settings	excess molar enthalpy [kJ/mol]
x1 = 0.0541	0.144
x1 = 0.1078	0.274
x1 = 0.161	0.392
x1 = 0.2138	0.495
x1 = 0.2661	0.583
x1 = 0.3179	0.661
x1 = 0.3693	0.722
x1 = 0.4203	0.769
x1 = 0.4708	0.804
x1 = 0.521	0.826
x1 = 0.5707	0.824
x1 = 0.62	0.815
x1 = 0.6688	0.789
x1 = 0.7173	0.745
x1 = 0.7654	0.685
x1 = 0.8131	0.604
x1 = 0.8604	0.496
x1 = 0.9073	0.362
x1 = 0.9538	0.195

COC [dimethyl ether]
Settings	vapor or sublimation pressure
[2]	1143 kPa and 1142.9 kPa and 1143.2 kPa

CCCO [propan-1-ol]
Settings	vapor or sublimation pressure [kPa]
[2]	12.32

COC [dimethyl ether] + CCO
[1]
Settings	excess molar enthalpy [kJ/mol]
x1 = 0.0428	0.0874
x1 = 0.0862	0.177
x1 = 0.1303	0.261
x1 = 0.175	0.341
x1 = 0.2205	0.416
x1 = 0.2667	0.486
x1 = 0.3137	0.549
x1 = 0.3614	0.606
x1 = 0.4098	0.653
x1 = 0.4591	0.693
x1 = 0.5092	0.716
x1 = 0.5601	0.733
x1 = 0.6118	0.739
x1 = 0.6645	0.725
x1 = 0.718	0.693
x1 = 0.7725	0.639
x1 = 0.8279	0.551
x1 = 0.8842	0.426
x1 = 0.9416	0.244

COC [dimethyl ether] + CCCCO
[1]
Settings	excess molar enthalpy [kJ/mol]
x1 = 0.0655	0.182
x1 = 0.129	0.337
x1 = 0.1904	0.476
x1 = 0.2499	0.59
x1 = 0.3076	0.675
x1 = 0.3635	0.749
x1 = 0.4178	0.8
x1 = 0.4705	0.832
x1 = 0.5216	0.85
x1 = 0.5713	0.852
x1 = 0.6196	0.832
x1 = 0.6666	0.802
x1 = 0.7122	0.76
x1 = 0.7567	0.7
x1 = 0.7999	0.626
x1 = 0.842	0.538
x1 = 0.8831	0.431
x1 = 0.923	0.305
x1 = 0.962	0.162

CO [methanol]
Settings	vapor or sublimation pressure [kPa]
[2]	55.3

CCO [ethanol]
Settings	vapor or sublimation pressure [kPa]
[2]	29.37

COC [dimethyl ether] + CO
[1]
Settings	excess molar enthalpy [kJ/mol]
x1 = 0.03	0.0244
x1 = 0.0614	0.0534
x1 = 0.0941	0.0848
x1 = 0.1282	0.121
x1 = 0.164	0.157
x1 = 0.2014	0.195
x1 = 0.2406	0.236
x1 = 0.2818	0.278
x1 = 0.325	0.32
x1 = 0.3704	0.361
x1 = 0.4183	0.397
x1 = 0.4688	0.434
x1 = 0.5222	0.467
x1 = 0.5786	0.491
x1 = 0.6384	0.504
x1 = 0.7018	0.502
x1 = 0.7693	0.471
x1 = 0.8412	0.398
x1 = 0.9179	0.253

CCCCO [butan-1-ol]
Settings	vapor or sublimation pressure [kPa]
[2]	4.61
